Results taken from patent US9662310B2, “Cyclopropanecarboxylic acid derivative” (DAIICHI SANKYO COMPANY, LIMITED, priority 2010, dated 2017).
Like-named read-outs stand apart in the source and are kept apart here.

Key:
TAFIa = TAFIa (Homo sapiens (Human), UniProt Q96IY4); assay: Determination of TAFIa enzyme inhibitory activity (FAAK substrate degradation); assay type: biochemical; conditions: read-out: TAFIa IC50
Procedure: Determination of TAFIa Enzyme Inhibitory Activity
HEPES buffered saline (20 mM HEPES, 150 mM NaCl, pH 7.4; hereinafter, referred to as HBS) was used in the preparation of a reaction solution. To 12 μL of a 250 μg/mL TAFI solution, 30 μL of an HBS solution containing 4 U/mL human thrombin, 12 U/mL rabbit lung thrombomodulin, and 12 mM CaCl2 was added, and the mixture was gently stirred. Then, TAFI was activated at room temperature. Ten minutes later, thrombin was neutralized by the addition of 10 μL of 100 μM PPACK (thrombin inhibitor) to terminate the activation of TAFI. The formed TAFIa was stored in ice and diluted immediately before use in determination with 2050 μL of an HBS solution containing BSA (bovine serum albumin) adjusted to 0.1% in terms of the final concentration.
(2) Determination of TAFIa Inhibitory Activity
A test substance was dissolved in HBS to prepare a 10-fold dilution series of evaluation concentrations. 80 μL of the TAFIa solution and 10 μL of the test substance were added to each well of a 96-well plate and mixed by shaking for 10 minutes. 10 μL of furylacryloyl-alanyl-lysine (FAAK) adjusted to 5 mg/mL was added to each well, and the change in the absorbance of this mixed solution at 330 nm was read for 30 minutes to determine the degradation rate of the substrate.
(3) Calculation of Inhibitory Activity IC50
The degradation rate of the substrate in each well was applied to a standard curve prepared using the dilution series of the TAFIa solution to calculate TAFIa activity.

[1] = test system: iron chloride-induced thrombus models; conditions: mice, intravenous administration; cited from earlier work
[2] = TAFI activated with human thrombin / rabbit lung thrombomodulin, substrate FAAK, absorbance at 330 nm

Chain of TAFIa (Q96IY4 115-423): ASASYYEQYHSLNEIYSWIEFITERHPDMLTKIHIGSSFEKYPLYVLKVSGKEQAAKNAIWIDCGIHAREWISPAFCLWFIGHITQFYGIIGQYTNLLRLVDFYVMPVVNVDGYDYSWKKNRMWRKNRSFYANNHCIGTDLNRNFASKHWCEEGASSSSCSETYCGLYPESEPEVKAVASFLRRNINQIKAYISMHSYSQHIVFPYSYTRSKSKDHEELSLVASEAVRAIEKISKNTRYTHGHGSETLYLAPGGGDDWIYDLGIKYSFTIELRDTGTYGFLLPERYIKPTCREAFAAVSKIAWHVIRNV

Molecule	IC50 (TAFIa; [2])	IC50 (TAFIa)	also measured
CC[C@@H](CN)C[C@H]1C[C@]1(C(=O)O)c1cn(-c2ccccc2)cn1 [Example 62, (1R,2S)-2-[(2R)-2-(Aminomethyl)butyl]-1-(1-phenyl-1H-imidazol-4-yl)cyclopropanecarboxylic acid]	7.9 nM	–	–
CC[C@H](CN)C[C@H]1C[C@]1(C(=O)O)c1cn(-c2ccccc2)cn1 [Example 63, (1R,2S)-2-[(25)-2-(Aminomethyl)butyl]-1-(1-phenyl-1H-imidazol-4-yl)cyclopropanecarboxylic acid]	–	12 nM	–
CCC[C@@H](CN)C[C@H]1C[C@]1(C(=O)O)c1cn(-c2ccccn2)cn1 [Example 66, (1R,2S)-2-[(2R)-2-(Aminomethyl)pentyl]-1-(1-pyridin-2-yl-1H-imidazol-4-yl)cyclopropanecarboxylic acid]	–	41 nM	–
CCC[C@@H](CN)C[C@@H]1C[C@@]1(C(=O)O)c1cn(-c2ccccn2)cn1 [Example 67, (1S,2R)-2-[(2R)-2-(Aminomethyl)pentyl]-1-(1-pyridin-2-yl-1H-imidazol-4-yl)cyclopropanecarboxylic acid]	–	> 100 nM	–
C[C@H](CCN)C1CC1(C(=O)O)c1cn(-c2ccccn2)cn1 (stereo partly drawn) [Example 68, 2-[(2R)-4-Aminobutane-2-yl]-1-[1-(pyridin-2-yl)-1H-imidazol-4-yl)cyclopropanecarboxylic acid]	12 nM	–	–
potato carboxypeptidase inhibitor (PCI) (QQHADPICNKPCKTHDDCSGAWFCQACWNSARTCGPYVG; UniProt P01075 1-39, looked up)	–	–	antithrombotic effect [1]: antithrombotic effect
